Reference: patent publication US6468476B1, “Methods for using-co-regulated genesets to enhance detection and classification of gene expression patterns” (Rosetta Inpharmatics, Inc., priority 1998, dated 2002)

Tested on: genes regulated by the Gcn4 transcription factor
Experiment: Transcript response (DNA microarray) to a titration series of FK506, genes of the Gcn4 geneset
Type: cell-based, Saccharomyces cerevisiae
Procedure: Yeast (Saccharomyces cerevisiae, Strain YPH499, see, Sikorski and Hieter, 1989, A system of shuttle vectors and yeast host strains designated for efficient manipulation of DNA in Saccharomyces cerevisiae, Genetics 122:19-27) cells were grown in YAPD at 30° C. to an OD600 of 1.0 (±0.2), and total RNA prepared by breaking cells in phenol/chloroform and 0.1% SDS by standard procedures (Ausubel et al., 1995, Current Protocols in Molecular Biology, Greene Publishing and Wiley-Interscience, New York, Ch. 13). Poly(A)^+ RNA was selected by affinity chromatography on oligo-dT cellulose (New England Biolabs) essentially as described in Sambrook et al. (Molecular Cloning—A Laboratory Manual (2nd Ed.), Vol. 1, Cold Spring Harbor Laboratory, Cold Spring Harbor, N.Y., 1989). First strand cDNA synthesis was carried out with 2 μg poly(A)^+ RNA and SuperScript™ II reverse transcriptase (Gibco-BRL) according to the manufacturer's instructions with the following modifications. Deoxyribonucleotides were present at the following concentrations: dA, dG, and dC at 500 μM each, dT at 100 μM and either Cy3-dUTP or Cy5-dUTP (Amersham) at 100 μM. cDNA synthesis reactions were carried out at 42-44° C. for 90 minutes, after which RNA was degraded by the addition of 2 units of RNAse H, and the cDNA products were purified by two successive rounds of centrifugation dialysis using MICROCON-30 microconcentrators (Amicon) according to the manufacturer's recommendations.
Double-stranded DNA polynucleotides corresponding in sequence to each ORF in the S. cerevisiae genome encoding a polypeptide greater than 99 amino acids (based on the published yeast genomic sequence, e.g., Goffeau et al., 1996, Science 274:546-567) are made by polymerase chain reaction (PCR) amplification of yeast genomic DNA. Two PCR primers are chosen internal to each of the ORFs according to two criteria: (i) the amplified fragments are 300-800 bp and (ii) none of the fragments have a section of more than 10 consecutive nucleotides of sequence in common. Computer programs are used to aid in the design of the PCR primers. Amplification is carried out in 96 well microtitre plates. The resulting DNA fragments are printed onto glass microscope slides using the method of Shalon et al., 1996, Genome Research 6:639-645.
Fluorescently-labeled cDNAs (2-6 μg) are resuspended in 4×SSC plus 1 μg/μl tRNA as carrier and filtered using […] filters (Millipore, Bedford, Mass.). SDS is added to 0.3%, prior to heating to 100° C. for 2 minutes. Probes are cooled and immediately hybridized to the microarrays produced as described in Example 6.2, for 4 hours at 65° C. Non-hybridized probe is removed by washing in 1×SSC plus 0.1% SDS at ambient temperature for 1-2 minutes. Microarrays are scanned with a fluorescence laser-scanning device as previously described (Schena et al., 1995, Science 270:467-470; Schena et al., 1995, Proc. Natl. Acad. Sci. USA 93:[…]) and the results (including the positions of perturbations) are recorded.
Geneset number 3 in the clustering analysis result of FIG. 6 involves genes regulated by the Gcn4 transcription factor. This was verified via the literature and via multiple sequence alignment analysis of the regulatory regions 5′ to the individual genes (Stormo and Hartzell, 1989, Identifying protein binding sites from unaligned DNA fragments, Proc Natl Acad Sci 86:1183-1187; Hertz and Stormo, 1995, Identification of consensus patterns in unaligned DNA and protein sequences: a large-deviation statistical basis for penalizing gaps, Proc of 3rd Intl Conf on Bioinformatics and Genome Research, Lim and Cantor, eds., World Scientific Publishing Co., Ltd. Singapore, pp. 201-216). […] These 20 were used to define a geneset. Response profiles to a titration series of the drug FK506, which is known to hit this pathway at higher concentrations, were projected onto this geneset. […]

C=CC[C@@H]1/C=C(\C)C[C@H](C)C[C@H](OC)[C@H]2O[C@@](O)(C(=O)C(=O)N3CCCC[C@H]3C(=O)O[C@H](/C(C)=C/[C@@H]3CC[C@@H](O)[C@H](OC)C3)[C@H](C)[C@@H](O)CC1=O)[C@H](C)C[C@@H]2OC [FK506]
Geneset Average response (projected response of the 20-gene Gcn4 geneset) (FK506 0.1 μg/ml): 0.1728 standard deviations of Log10(Expression Ratio) | Response of gene ARG1 (FK506 0.1 μg/ml): 0.2083 standard deviations of Log10(Expression Ratio) | Response of gene ARG4 (FK506 0.1 μg/ml): 0.3585 standard deviations of Log10(Expression Ratio) | Response of gene ARG5,6 (FK506 0.1 μg/ml): 0.1162 standard deviations of Log10(Expression Ratio) | Response of gene ECM13 (FK506 0.1 μg/ml): 0.1269 standard deviations of Log10(Expression Ratio) | Response of gene HIS3 (FK506 0.1 μg/ml): −0.3719 standard deviations of Log10(Expression Ratio) | Response of gene HIS5 (FK506 0.1 μg/ml): 0.0292 standard deviations of Log10(Expression Ratio) | Response of gene MET16 (FK506 0.1 μg/ml): 0.0225 standard deviations of Log10(Expression Ratio) | Response of gene NCE3 (FK506 0.1 μg/ml): 0.0371 standard deviations of Log10(Expression Ratio) | Response of gene PCL5 (FK506 0.1 μg/ml): 0.1418 standard deviations of Log10(Expression Ratio) | Response of gene SNO1 (FK506 0.1 μg/ml): −0.2899 standard deviations of Log10(Expression Ratio) | Response of gene SNZ1 (FK506 0.1 μg/ml): −0.7223 standard deviations of Log10(Expression Ratio) | Response of gene SSU1 (FK506 0.1 μg/ml): 0.6257 standard deviations of Log10(Expression Ratio) | Response of gene YBR047W (FK506 0.1 μg/ml): 0.0781 standard deviations of Log10(Expression Ratio) | Response of gene YER024W (FK506 0.1 μg/ml): 0.1985 standard deviations of Log10(Expression Ratio) | Response of gene YGL117W (FK506 0.1 μg/ml): 0.6309 standard deviations of Log10(Expression Ratio) | Response of gene YGL184C (FK506 0.1 μg/ml): 0.0654 standard deviations of Log10(Expression Ratio) | Response of gene YHR029C (FK506 0.1 μg/ml): −0.031 standard deviations of Log10(Expression Ratio) | Response of gene YMR195W (FK506 0.1 μg/ml): 0.7615 standard deviations of Log10(Expression Ratio) | Geneset Average response (projected response of the 20-gene Gcn4 geneset) (FK506 0.31 μg/ml): 0.6753 standard deviations of Log10(Expression Ratio) | Response of gene ARG1 (FK506 0.31 μg/ml): 0.3436 standard deviations of Log10(Expression Ratio) | Response of gene ARG4 (FK506 0.31 μg/ml): 0.3508 standard deviations of Log10(Expression Ratio) | Response of gene ARG5,6 (FK506 0.31 μg/ml): 0.2722 standard deviations of Log10(Expression Ratio) | Response of gene ARO3 (FK506 0.31 μg/ml): −0.1371 standard deviations of Log10(Expression Ratio) | Response of gene ECM13 (FK506 0.31 μg/ml): 0.2197 standard deviations of Log10(Expression Ratio) | Response of gene HIS3 (FK506 0.31 μg/ml): 0.1282 standard deviations of Log10(Expression Ratio) | Response of gene HIS5 (FK506 0.31 μg/ml): 0.2175 standard deviations of Log10(Expression Ratio) | Response of gene MET16 (FK506 0.31 μg/ml): −0.6269 standard deviations of Log10(Expression Ratio) | Response of gene NCE3 (FK506 0.31 μg/ml): 0.1668 standard deviations of Log10(Expression Ratio) | Response of gene PCL5 (FK506 0.31 μg/ml): 0.2767 standard deviations of Log10(Expression Ratio) | Response of gene SNO1 (FK506 0.31 μg/ml): 0.0244 standard deviations of Log10(Expression Ratio) | Response of gene SNZ1 (FK506 0.31 μg/ml): 0.0244 standard deviations of Log10(Expression Ratio) | Response of gene SSU1 (FK506 0.31 μg/ml): 0.6655 standard deviations of Log10(Expression Ratio) | Response of gene YBR047W (FK506 0.31 μg/ml): 0.1553 standard deviations of Log10(Expression Ratio) | Response of gene YER024W (FK506 0.31 μg/ml): −0.0419 standard deviations of Log10(Expression Ratio) | Response of gene YGL117W (FK506 0.31 μg/ml): 0.6768 standard deviations of Log10(Expression Ratio) | Response of gene YGL184C (FK506 0.31 μg/ml): −0.0207 standard deviations of Log10(Expression Ratio) | Response of gene YHR029C (FK506 0.31 μg/ml): 0.2438 standard deviations of Log10(Expression Ratio) | Response of gene YMR195W (FK506 0.31 μg/ml): 0.3323 standard deviations of Log10(Expression Ratio) | 'Geneset' response, significance (FK506 1.6 μg/ml): > 3 sigrna | Geneset Average response (projected response of the 20-gene Gcn4 geneset) (FK506 1.6 μg/ml): 3.3045 standard deviations of Log10(Expression Ratio) | Response of gene ARG1 (FK506 1.6 μg/ml): 3.1765 standard deviations of Log10(Expression Ratio) | Response of gene ARG4 (FK506 1.6 μg/ml): 1.6674 standard deviations of Log10(Expression Ratio) | Response of gene ARG5,6 (FK506 1.6 μg/ml): 1.1844 standard deviations of Log10(Expression Ratio) | Response of gene ARO3 (FK506 1.6 μg/ml): 0.2684 standard deviations of Log10(Expression Ratio) | Response of gene CPA2 (FK506 1.6 μg/ml): 1.2429 standard deviations of Log10(Expression Ratio) | Response of gene ECM13 (FK506 1.6 μg/ml): 0.5226 standard deviations of Log10(Expression Ratio) | Response of gene HIS3 (FK506 1.6 μg/ml): 0.71 standard deviations of Log10(Expression Ratio) | Response of gene HIS5 (FK506 1.6 μg/ml): 0.9802 standard deviations of Log10(Expression Ratio) | Response of gene MET16 (FK506 1.6 μg/ml): −0.1885 standard deviations of Log10(Expression Ratio) | Response of gene NCE3 (FK506 1.6 μg/ml): 1.2896 standard deviations of Log10(Expression Ratio) | Response of gene PCL5 (FK506 1.6 μg/ml): 0.4127 standard deviations of Log10(Expression Ratio) | Response of gene SNO1 (FK506 1.6 μg/ml): −0.4772 standard deviations of Log10(Expression Ratio) | Response of gene SNZ1 (FK506 1.6 μg/ml): −0.4772 standard deviations of Log10(Expression Ratio) | Response of gene SSU1 (FK506 1.6 μg/ml): 0.2883 standard deviations of Log10(Expression Ratio) | Response of gene YBR047W (FK506 1.6 μg/ml): 0.2806 standard deviations of Log10(Expression Ratio) | Response of gene YER024W (FK506 1.6 μg/ml): 0.4868 standard deviations of Log10(Expression Ratio) | Response of gene YGL117W (FK506 1.6 μg/ml): 1.6276 standard deviations of Log10(Expression Ratio) | Response of gene YGL184C (FK506 1.6 μg/ml): −0.0731 standard deviations of Log10(Expression Ratio) | Response of gene YHR029C (FK506 1.6 μg/ml): 0.4421 standard deviations of Log10(Expression Ratio) | Response of gene YMR195W (FK506 1.6 μg/ml): 1.6021 standard deviations of Log10(Expression Ratio)
